Laboratory results as given in patent publication US20160251402A1, “MICROPEPTIDES AND USE OF SAME FOR MODULATING GENE EXPRESSION” (UNIVERSITE PAUL SABATIER TOULOUSE III, priority 2013, published 2016).
Entries after “also recorded” stand apart in the source; their conditions may differ.

Key:
MtmiR171b = experiment: Accumulation of MtmiR171b / pre-MtmiR171b in M. truncatula roots (qRT-PCR); assay type: in vivo, Medicago truncatula; details: for relative expression of pre-MtmiR171b: watering once daily for 5 days with peptide at 0.01, 0.1 or 1 μM vs control plants
Protocol: (§1) The surface of seeds of M truncatula was sterilized and they were left to germinate on agar plates for 5 days at 4° C. in the dark. The young shoots were then grown on 12-cm square plates filled with Fahraeus medium without nitrogen and containing 7.5 μM phosphate (Lauressergues et al., Plant J., 72(3): 512-22, 2012). The lateral roots were counted every day. In pots, the plants were watered every other day with modified Long Ashton medium with low phosphorus content (Balzergue et al., Journal of Experimental Botany, (62)1049-1060, 2011).
(§2) The peptides were synthesized by Eurogentec or Smartox-Biotech. MtmiPEP171b1 was resuspended in a solution of 40% water/50% acetonitrile/10% acetic acid (v/v/v), and the other peptides were resuspended in water.
The RNA was extracted using the reagent Tri-Reagent (MRC) according to the manufacturer's instructions, except for precipitation of the RNA, which was carried out with 3 volumes of ethanol. The everse transcription of the RNA was carried out using the specific stem-loop primer RTprimer171b in combination with hexamers for performing the reverse transcription of RNA of high molecular weight.
In brief, 1 μg of RNA was added to the stem-loop primer MIR171b (0.2 μM), the hexamer (500 ng), the buffer RT (1×), the enzyme SuperScript Reverse transcriptase (SSIII) (one unit), the dNTPs (0.2 mM each), DTT (0.8 mM) in a final reaction mixture of 25 μl. […]
(§3) The mean values of the relative expression of the genes or of the production of lateral roots were analysed using the Student test or the Kruskal-Wallis test. […]
(§4) The composite plants having roots transformed with Agrobacterium rhizogenes were obtained by the method described in Boisson-Dernier et al. (Mol Plant-Microbe Interact, 18: 1269-1276, 2005). The transformed roots were verified and selected by observations of DsRED with a binocular fluorescence magnifier. […]

[1] = test system: HAM1 (accession No. MtGI9-TC114268); experiment: Expression of the HAM1 gene in M. truncatula (qRT-PCR); assay type: in vivo, Medicago truncatula
Protocol: as §1, §2
(§5) The total RNA was extracted from roots of M. truncatula or from tobacco leaves using the extraction kit RNeasy Plant Mini Kit (Qiagen). […]
as §3, §4

[2] = test system: HAM2 (accession No. MtGI9-TC120850); experiment: Expression of the HAM2 gene in M. truncatula (qRT-PCR); assay type: in vivo, Medicago truncatula
Protocol: as §1, §2, §5, §3, §4

[3] = test system: Medicago truncatula lateral roots; experiment: Number of lateral roots in M. truncatula; assay type: in vivo
Protocol: as §1, with “2011). The mean values of the relative expression of the genes or of the production of lateral roots were analysed using the Student test or the Kruskal-Wallis test. The error bars represent the SEM (Standard Error of the Mean). The asterisks indicate a significant difference (p<0.05).” for “2011).”

[4] = test system: pre-MtmiR171b, pre-MtmiR169, pre-MtmiR169a, pre-MtmiR171a, pre-MtmiR171h, pre-MtmiR393a, pre-MtmiR393b, pre-MtmiR396a, pre-MtmiR396b; experiment: Specificity: expression of different precursors of microRNAs in M. truncatula; assay type: in vivo, Medicago truncatula; details: plants overexpressing MtmiPEP171b1 or treated with MtmiPEP171b1 (0.1 μM)
Protocol: The expression of different microRNA precursors of Medicago truncatula (MtmiR171b SEQ ID NO: 319, MtmiR169 SEQ ID NO: 367, MtmiR169a SEQ ID NO: 368, MtmiR171a SEQ ID NO: 369, MtmiR171h SEQ ID NO: 370, MtmiR393a SEQ ID NO: 371, MtmiR393b SEQ ID NO: 372, MtmiR396a SEQ ID NO: 373 and MtmiR396b SEQ ID NO: 374) was determined and compared between control plants and plants in which MtmiORF171b encoding MtmiPEP171b1 was overexpressed (FIG. 5A), or between control plants and plants grown on culture medium containing MtmiPEP171b1 (FIG. 5B).
The total RNA was extracted from roots of M. truncatula or from tobacco leaves using the extraction kit RNeasy Plant Mini Kit (Qiagen). The reverse transcription was performed using the reverse transcriptase SuperScript II (Invitrogen) starting from 500 ng of total RNA. Three repetitions (n=3) were carried out, each with two technical repetitions. Each experiment was repeated from two to three times. The amplifications by qPCR were carried out using a LightCycler 480 System thermocycler (Roche Diagnostics) by the method described in Lauressergues et al. (Plant J., 72(3): 512-22, 2012).

[5] = watering once daily for 5 days with peptide at 0.01, 0.1 or 1 μM vs control plant
[6] = plant in which MtmiPEP171b1 is overexpressed vs control plant

Q: Which “relative expression of MtmiR171b” value (MtmiR171b; [5]) does the source give for “MLLHRLSKFCKIERDIVYIS (listed as Medicago truncatula) [MtmiPEP171b1]” here?
A: The value was “increase in the accumulation”.

Q: What about the “relative expression of pre-MtmiR171b” value (MtmiR171b) of the same sequence?
A: Its value is “increase in the accumulation of pre-MtmiR171b”.

Q: What about the “relative expression of pre-MtmiR171b” value (MtmiR171b; listed as MtPEP171b1) of the same sequence?
A: The value was “increase in the accumulation”.

Q: And the “relative expression of HAM1” value [1, 6]?
A: Its value is “decrease in the expression of the HAM1 and HAM2 genes”.

Q: What about the “relative expression of HAM1” value [1, 5] of the same sequence?
A: The value was “decrease in the expression of the HAM1 and HAM2 genes”.

Q: And the “relative expression of HAM2” value [2, 6]?
A: The value was “decrease in the expression of the HAM1 and HAM2 genes”.

Q: What about the “relative expression of HAM2” value [2, 5] of the same sequence?
A: Its value is “decrease in the expression of the HAM1 and HAM2 genes”.

Q: And the “mean number of lateral roots” value [3, 6]?
A: The value was “reduction in the number of lateral roots”.

Q: What about the “mean number of lateral roots” value ([3]; watering with peptide at 0.1 μM once daily for 5 days vs control plant) of the same sequence?
A: The value was “reduction in the number of lateral roots”.

Q: And the “ratio of the expression of the precursors of microRNAs to control roots (specificity)” value [4]?
A: The value was “only leads to an effect on the accumulation of MtmiR171b and not on the other miRNAs; also recorded: only leads to an increase in the accumulation of MtmiR171b and not of the other miRNAs”.
